Data on 20 molecules can be found in patent US20220251084A1, “PROGRANULIN MODULATORS AND METHODS OF USING THE SAME” (ARKUDA THERAPEUTICS, priority 2019, published 2022).

Where only a bound is given, the exact number is not on record here.

One assay concerns progranulin (PGRN) secretion, BV-2 cells. Nature of the assay: PGRN assay: progranulin induction cellular assay (ELISA of secreted mouse PGRN). In kind it is cell-based.
Settings: not given
The method in brief:
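Progranulin induction measured in BV-2 cells plated at about 80% confluence the day before, given 1 h to attach, then incubated 16 h. Secreted mouse PGRN quantified by ELISA.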
In turn, `N#Cc1ccc2c(c1)CCN(C(=O)O[C@@H]1CN3CCC1CC3)[C@@H]2c1ccc(F)cc1` [Compound 2034] returned an EC50 of 6.07 µM.

`O=C(O[C@@H]1CN2CCC1(F)CC2)N1CCc2ccccc2[C@@H]1c1ccc(F)cc1` (single isomer, unassigned) [Compound 2126]: a half-maximal response (EC50) required 1.25 µM. The molecule `O=C(O[C@@H]1CN2CCC1CC2)N1CCc2cccnc2[C@@H]1c1ccc(F)cc1` [Compound 2054, (S)-quinuclidin-3-yl 8-(4-fluorophenyl)-5,6-dihydro-1,7-naphthyridine-7(8H)-carboxylate] came in with an EC50 of 4.74 µM.

Staying with this assay, now noted: Mus musculus, BV-2.
`CS(=O)(=O)c1ccc2c(c1)[C@H](c1ccc(F)cc1)N(C(=O)O[C@@H]1CN3CCC1CC3)CC2` [Compound 2031] came in with an EC50 of 5.75 µM. With `CS(=O)(=O)c1ccc2c(c1)[C@@H](c1ccc(F)cc1)N(C(=O)O[C@@H]1CN3CCC1CC3)CC2` [Compound 2032], the EC50 is greater than 10 µM. Turning to `C#CCOc1ccc2c(c1)CCN(C(=O)O[C@@H]1CN3CCC1CC3)[C@H]2c1ccc(F)cc1` [Compound 2082], the response was half-maximal at 7.46 µM (EC50).

Still in this assay, the particulars now being: Mus musculus, BV-2, PGRN assay, Table C; secreted mouse PGRN in cell culture medium, ELISA.
With `CN1CCC(COC(=O)N2CCc3ccccc3[C@H]2c2cccc(F)c2F)CC1` [Compound 2135], a half-maximal response (EC50) required 2.66 µM. The same measure, in the same setting: the value for `COC(=O)c1ccc2c(c1)CCN(C(=O)NCC13CCN(CC1)CC3)[C@@H]2c1ccc(F)cc1` [Compound 2069] was 4.13 µM; that for `COc1ccc(COc2ccc([C@@H]3c4ccccc4CCN3C(=O)OCC34CCN(CC3)CC4)cc2)cc1` [Compound 2137] was greater than 3.16 µM. `N#Cc1ccc2c(c1)CCN(C(=O)N[C@@H]1CN3CCC1CC3)[C@@H]2c1ccc(F)cc1` [Compound 2015] displayed an EC50 of 1.5 µM. In turn, `O=C(O[C@H]1CCCNC1)N1CCc2ccccc2[C@@H]1c1ccc(F)cc1` (single isomer, unassigned) [Compound 2168] yielded an EC50 of 2.54 µM. In turn, `O=C(CCC12CCN(CC1)CC2)N1CCc2ccccc2[C@@H]1c1ccc(F)cc1` [Compound 2037] displayed an EC50 greater than 8.09 µM. For `CN1CC2(CC[C@@H]2OC(=O)N2CCc3ccccc3[C@@H]2c2ccc(F)cc2)C1` [Compound 2021], a half-maximal effect (EC50) was put at 0.735 µM. The same measure, in the same setting: the value for `COC(C(=O)N1CCc2ccccc2[C@@H]1c1ccc(F)cc1)C1CN2CCC1CC2` (stereo partly drawn) [Compound 2175, 1-((S)-1-(4-fluorophenyl)-3,4-dihydroisoquinolin-2(1H)-yl)-2-methoxy-2-(quinuclidin-3-yl) ethenone] was 4.13 µM.

The assay is the same for the next values; noted with them: Mus musculus, BV-2, PGRN assay, Table D; secreted mouse PGRN in cell culture medium, ELISA.
`O=C(N1CCNCC(F)(F)C1)N1CCc2ccccc2[C@@H]1c1ccc(F)cc1` [Compound 2262, (S)-(6,6-difluoro-1,4-diazepan-1-yl)(1-(4-fluorophenyl)-3,4-dihydroisoquinolin-2(1H)-yl)methanone]: the EC50 was greater than 10 µM.

The molecule `O=C(OC[C@@H]1CCN1)N1CCc2ccccc2[C@@H]1c1ccc(F)cc1` [Compound 2239, (S)-(S)-azetidin-2-ylmethyl 1-(4-fluorophenyl)-3,4-dihydroisoquinoline-2(1H)-carboxylate] gave an EC50 of 1.14 µM. The same measure, in the same setting: the value for `NC[C@@H]1CCN(C(=O)N2CCc3ccccc3[C@@H]2c2ccc(F)cc2)C1` [Compound 2279, ((S)-3-(aminomethyl)pyrrolidin-1-yl)((S)-1-(4-fluorophenyl)-3,4-dihydroisoquinolin-2(1H)-yl)methanone] was 0.428 µM; that for `CN1CCC(C(O)C(=O)N2CCc3ccccc3[C@@H]2c2ccc(F)cc2)C1` (stereo partly drawn) [Compound 2267, 1-((S)-1-(4-fluorophenyl)-3,4-dihydroisoquinolin-2(1H)-yl)-2-hydroxy-2-(1-methylpyrrolidin-3-yl)ethanone] was 0.13 µM; that for `O=C(O[C@@H]1CNC[C@H]1F)N1CCc2ccccc2[C@@H]1c1ccc(F)cc1` [Compound 2349, (3R,4R)-4-fluoropyrrolidin-3-yl (S)-1-(4-fluorophenyl)-3,4-dihydroisoquinoline-2(1H)-carboxylate] was 0.346 µM.

The assay is the same for the next values; noted with them: PGRN assay, Table D; secreted mouse PGRN in cell culture medium, ELISA.
`O=C(N[C@H]1CNCCOC1)N1CCc2ccccc2[C@@H]1c1ccc(F)cc1` (single isomer, unassigned) [Compound 2276] had an EC50 of 1.05 µM.
